In PubChem BioAssay (NCI):
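A five-concentration, 48-hour dose response in 96-well plates underlies each endpoint, interpolated linearly between surrounding concentrations. GI50 = concentration required for 50% inhibition of growth. At the TGI there is no net growth.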

Experiments:
Assay in all cases: NCI tumour cell line growth inhibition, 48 h
HCC-2998 colon = system: HCC-2998 colon
MDA-MB-231 breast = system: MDA-MB-231 breast
NCI-H522 lung = system: NCI-H522 lung
OVCAR-3 ovarian = system: OVCAR-3 ovarian
OVCAR-5 ovarian = system: OVCAR-5 ovarian
SF-295 CNS = system: SF-295 CNS
SNB-75 CNS = system: SNB-75 CNS
T-47D breast = system: T-47D breast
TK-10 renal = system: TK-10 renal
U251 CNS = system: U251 CNS

For `COC(=O)[C@]12CC[C@@H](C)[C@H](C)[C@@H]1C1=CC[C@@H]3[C@@]4(C)C(C=O)=C[C@@](C)(COC(C)=O)[C@@H]4[C@H](O)C[C@@]3(C)[C@]1(C)CC2`, the GI50 (HCC-2998 colon) was 1.83 µM, the TGI (HCC-2998 colon) was 3.6 µM and the GI50 (MDA-MB-231 breast) was 2.27 µM. It also gave a TGI (MDA-MB-231 breast) of 5.41 µM, a GI50 (NCI-H522 lung) of 3.46 µM and a TGI (NCI-H522 lung) of 8.83 µM. It also gave a GI50 (OVCAR-3 ovarian) of 1.82 µM, a TGI (OVCAR-3 ovarian) of 3.34 µM and a GI50 (OVCAR-5 ovarian) of 2.03 µM. For the same compound, the TGI (OVCAR-5 ovarian) was 5.6 µM, the GI50 (SF-295 CNS) was 1.67 µM and the TGI (SF-295 CNS) was 3.54 µM. The GI50 (SNB-75 CNS) was 1.74 µM, the TGI (SNB-75 CNS) was 10.5 µM and the GI50 (T-47D breast) was 2.75 µM. For the same compound, the TGI (T-47D breast) was 14.2 µM, the GI50 (TK-10 renal) was 2.73 µM and the TGI (TK-10 renal) was 8.77 µM. The GI50 (U251 CNS) was 1.92 µM and the TGI (U251 CNS) was 4.36 µM.
For `C=C1C(=O)O[C@H]2[C@H]1CC/C(COC(=O)C(=O)c1c[nH]c3ccc(OC)cc13)=C\CC[C@@]1(C)O[C@@H]21`, the GI50 (HCC-2998 colon) was 6.29 µM, the TGI (HCC-2998 colon) was 9.82 µM and the GI50 (MDA-MB-231 breast) was 6.27 µM. It also gave a TGI (MDA-MB-231 breast) of 12 µM, a GI50 (NCI-H522 lung) of 5.34 µM and a TGI (NCI-H522 lung) of 9.31 µM. For the same compound, the GI50 (OVCAR-3 ovarian) was 1.87 µM, the TGI (OVCAR-3 ovarian) was 3.42 µM and the GI50 (OVCAR-5 ovarian) was 7.11 µM. The TGI (OVCAR-5 ovarian) was 14.1 µM, the GI50 (SF-295 CNS) was 12.4 µM and the TGI (SF-295 CNS) was 29.5 µM. For the same compound, the GI50 (SNB-75 CNS) was 6.13 µM, the TGI (SNB-75 CNS) was 10.4 µM and the GI50 (T-47D breast) was 6.98 µM. The TGI (T-47D breast) was 12.4 µM, the GI50 (TK-10 renal) was 6.41 µM and the TGI (TK-10 renal) was 14.5 µM. For the same compound, the GI50 (U251 CNS) was 7.06 µM and the TGI (U251 CNS) was 10.8 µM.
With `COc1cc2c3c(n(CCCN)c(=O)c2cc1OC)-c1ccc(F)cc1C3=O` the GI50 (HCC-2998 colon) was 2.67 µM, the TGI (HCC-2998 colon) was 12.6 µM and the GI50 (MDA-MB-231 breast) was 12.8 µM. The TGI (MDA-MB-231 breast) was 26.3 µM, the GI50 (NCI-H522 lung) was 2.35 µM and the TGI (NCI-H522 lung) was 20.3 µM. The GI50 (OVCAR-3 ovarian) was 4.46 µM, the TGI (OVCAR-3 ovarian) was 17.4 µM and the GI50 (OVCAR-5 ovarian) was 10.4 µM. For the same compound, the TGI (OVCAR-5 ovarian) was 22.7 µM, the GI50 (SF-295 CNS) was 0.564 µM and the TGI (SF-295 CNS) was 14.9 µM. The GI50 (SNB-75 CNS) was 11.1 µM, the TGI (SNB-75 CNS) was 27 µM and the GI50 (T-47D breast) was 2.46 µM. For the same compound, the TGI (T-47D breast) was 15.5 µM, the GI50 (TK-10 renal) was 14.7 µM and the TGI (TK-10 renal) was 30.4 µM. For the same compound, the GI50 (U251 CNS) was 0.746 µM and the TGI (U251 CNS) was 6.45 µM.
With `N#Cc1c[nH]n2ccnc12` the TGI (HCC-2998 colon) was > 100 µM, the TGI (MDA-MB-231 breast) was > 100 µM and the TGI (NCI-H522 lung) was > 100 µM. For the same compound, the TGI (OVCAR-3 ovarian) was > 100 µM, the TGI (OVCAR-5 ovarian) was > 100 µM and the TGI (SF-295 CNS) was > 100 µM. The TGI (SNB-75 CNS) was > 100 µM, the TGI (T-47D breast) was > 100 µM and the TGI (TK-10 renal) was > 100 µM. For the same compound, the TGI (U251 CNS) was > 100 µM.
